Experimental data published in US20200054657A1, “Compositions of Matter and Methoods to Treat Cancer” (priority 2018, published 2020).
Entries after “also recorded” stand apart in the source; their conditions may differ.

Tests used:
[1] = test system: THP-1; test: viability of THP-1 acute leukemia cells; format: cell-based; conditions: Homo sapiens; Andrographolide (50 μM) alone; second cell line not named in the sentence (THP-1)
Procedure: (§1) FIG. 3. […] Andrographolide (50 μM) alone reduced cell viability to 54.3±2.8% in CCRF-CEM cells and to 68.5±1.4%. *** =P<0.001.
(§2) Andrographolide (50 μM) and Frondoside A (between 1 and 3 mM) was assayed for anticancer effects through determining cell viability of the two human, acute leukemia cell lines CCRF-CEM and THP-1. […] Andrographolide (50 μM) alone reduced cell viability to 54.3±2.8% in CCRF-CEM cells and to 68.5±1.4%. (FIG. 3)

[2] = test system: CCRF-CEM; test: viability of CCRF-CEM acute leukemia cells; format: cell-based; conditions: Homo sapiens, Andrographolide (50 μM) alone, read-out: cell viability
Procedure: as §1, §2

[3] = test system: HT29 human colonic cancer cells; test: viability of HT29 colonic cancer cells; conditions: HT29 (FIG. 7); for enhancing effect of Andrographolide on the response: in the presence of Andrographolide; for reduction in viability: single agents
[4] = test system: AsPC-1 human pancreatic cancer cells; test: viability of AsPC-1 pancreatic cancer cells; format: cell-based; conditions: for enhancing effect of Andrographolide on the response: in the presence of Andrographolide; for enhancing effect of Andrographolide on the response / reduction in viability: AsPC-1 (FIG. 6); for comparison of effects on cell viability / reduction in viability: single agents; for comparison of effects on cell viability: AsPC-1 (FIG. 5)
Procedure: Andrographolide at 1 mM and Frondoside A (between 1 mM and 3 mM) were assayed for anticancer effects on the viability of the two human pancreatic cancer cell lines, AsPC-1 and S2013.

[5] = molecular target: PAK-1 kinase (Homo sapiens, UniProt Q13153); conditions: in vitro; cited from earlier work
[6] = LD50 in mice
[7] = mice; cited from earlier work
[8] = lack of change in CBC, liver function tests, body weight; cited from earlier work
[9] = pharmacokinetics study by oral route, LC/MS/MS detection in the blood; format: in vivo, humans
Procedure: In a pharmacokinetics and pharmacodynamics study of Frondoside A by oral route in humans, as are known to those skilled in the arts, dosage of 10 milligrams of Frondoside A is delivered in an enteric coated gelatin capsule, as are known to those skilled in the arts and is detected by LC/MS/MS in the blood up to 20 hours later. In a pharmacokinetics and pharmacodynamics study in a huma of Frondoside A by oral route in humans, a dosage of 10 milligrams of Frondoside A in a capsule without the benefit of enteric coated capsule delivery, is not detected by LC/MS/MS in the blood up to 20 hours later.

Sequence of PAK-1 kinase (Q13153 whole entry): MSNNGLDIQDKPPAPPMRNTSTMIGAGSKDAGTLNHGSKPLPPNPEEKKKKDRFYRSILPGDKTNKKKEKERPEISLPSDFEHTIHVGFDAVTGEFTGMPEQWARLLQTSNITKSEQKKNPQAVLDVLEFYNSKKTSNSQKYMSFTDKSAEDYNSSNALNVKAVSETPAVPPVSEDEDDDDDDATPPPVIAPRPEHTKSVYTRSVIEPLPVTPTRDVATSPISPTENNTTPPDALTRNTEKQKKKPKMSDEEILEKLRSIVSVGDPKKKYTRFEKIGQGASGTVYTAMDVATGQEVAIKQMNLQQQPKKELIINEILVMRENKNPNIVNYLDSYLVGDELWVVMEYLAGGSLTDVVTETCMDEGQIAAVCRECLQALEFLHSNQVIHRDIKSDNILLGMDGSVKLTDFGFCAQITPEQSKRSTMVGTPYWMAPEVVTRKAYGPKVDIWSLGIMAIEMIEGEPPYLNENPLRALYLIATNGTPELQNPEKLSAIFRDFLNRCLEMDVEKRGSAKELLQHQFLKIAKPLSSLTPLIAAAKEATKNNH

Row | SMILES | enhancing effect of Andrographolide on the response [3] | reduction in viability [3] | enhancing effect of Andrographolide on the response [4] | comparison of effects on cell viability [4] | reduction in viability [4] | other results
1 | C=C1CC[C@@H]2[C@](C)(CO)[C@H](O)CC[C@@]2(C)[C@@H]1C/C=C1/C(=O)OC[C@H]1O [Andrographolide] |  |  |  |  |  | viability at 50 µM [1]: 68.5 ± 1.4%; viability at 50 µM [2]: 54.3 ± 2.8%
2 | CCn1c(=O)c(-c2ccc(-c3cncs3)cc2Cl)cc2cnc(Nc3ccc(N4CCN(C)CC4)cc3)nc21 [FRAX597] | no enhancing effect; also recorded: tendency of the reduced effectiveness | modest dose responsive reduction in viability | no enhancing effect; also recorded: tendency of the reduced effectiveness | less potent anti-cancer compounds | dose responsive reduction in viability | 
3 | CCn1c(=O)c(-c2ccc(-c3cncc(C)n3)cc2Cl)cc2cnc(NCCC3CCN(C)CC3)nc21 [FRAX1036] | no enhancing effect | modest dose responsive reduction in viability | no enhancing effect | less potent anti-cancer compounds | dose responsive reduction in viability | 
4 | CO[C@@H]1[C@@H](O)[C@H](O[C@@H]2[C@@H](O)[C@H](O[C@H]3[C@H](O)[C@@H](O[C@@H]4OC[C@@H](O)[C@H](O)[C@H]4O)[C@H](O[C@H]4[C@H](OC5CC[C@]6(C)[C@H]7CCC89C(=O)O[C@@](C)(CCCC(C)C)C8[C@@H](OC(C)=O)C[C@@]9(C)C7=CC[C@H]6C5(C)C)OC[C@@H](OS(=O)(=O)[O-])[C@@H]4O)O[C@@H]3C)OC[C@H]2O)O[C@H](CO)[C@H]1O.[Na+] (stereo partly drawn) [Frondoside A] |  |  |  |  |  | PAK-1 inhibition [5]: inhibitor of PAK-1 kinase; LD50 relative to the dose used therapeutically [6]: more than 1000 times; LD50 [7]: 9.9 mg/kg; toxic effects at therapeutic doses [8]: does not have toxic effects at therapeutic doses; detected by LC/MS/MS in the blood up to 20 hours later ([9]; 10 milligrams in a capsule without enteric coating, human): not detected; detected by LC/MS/MS in the blood ([9]; 10 milligrams in an enteric coated gelatin capsule, humans): up to 20 hours
